In patent publication US12258355B2, “Probes for imaging huntingtin protein” (CHDI Foundation, Inc., priority 2014, dated 2025):
pIC50: −log10 of the molar value.

How the values were obtained:
[1] = tested on: zQ175 knock-in mice (WT, heterozygous, homozygous); assay: In vivo PET imaging in zQ175 knock-in mouse model of Huntington's disease; details: for Average % SUV: i.v., 63-minute PET scan, Mean ± SD
Experimental: In Vivo Imaging with [^11C]-Compound 3 of Method 14 (5-[(5-[^11C-]-Methoxypyridin-2-yl)methoxy]-2-(pyridin-3-yl)-1,3-benzoxazole)) in a Knock-In Model of Huntington's Disease
^11C-labeled Compound 3 of Method 14 was evaluated for its ability to penetrate the central nervous system of mice following systemic administration, and its binding to the cerebellum, striatum, hippocampus, and cortex was quantitated. Three groups of animals were compared: wild-type, and mice that were heterozygous or homozygous for the zQ175 knock-in allele. (Menalled L. B. et al. Comprehensive behavioral and molecular characterization of a new knock-in mouse model of Huntington's disease: zQ175. PLoS One 2012, 7, e49838).
Forty-eight nine months old animals (16 WT, 16 heterozygous and 16 homozygous zQ175) were obtained from The Jackson Laboratory, USA. The animals were housed at the animal department of Karolinska University Hospital in a temperature (±21° C.) and humidity (±40%) controlled environment on a 12 h light/dark cycle (lights on 7:00 AM) with access to food and water ad libitum. Animals were allowed at least one week to habituate to the animal department before the start of the imaging sessions. All experiments were conducted during the light phase of the cycle.
Animals were anesthetized with inhalation of isoflurane (4-5% isoflurane in 100% oxygen). After induction of anesthesia, the isoflurane concentration was lowered to 1.5-2% (50/50 air/oxygen) and the animals were positioned in the scanner in a designated mouse bed. A cannula was inserted in the tail vein through which the radioligand was administered. A 63-minute dynamic PET scan was initiated immediately upon intravenous injection of the radioligand. Upon completion of the imaging sessions, each animal was returned to its cage.
Image and Statistical Analysis
The acquired list mode data, was reconstructed into 25 timeframes (63 min scan=4×10 s, 4×20 s, 4×60 s, 7×180 s, 6×360 s). The image reconstruction was made with a fully 3-dimensional maximum-likelihood expectation maximization algorithm (MLEM) with 20 iterations, without scatter and attenuation correction. The reconstructed dynamic PET images were co-registered to an inbuilt mouse MRI template available in PMOD, which also incorporates volumes of interest (VOI's) sets (PMOD Technologies Ltd., Zurich, Switzerland). With the help of these VOI sets, decay corrected time activity curves (TAC) were generated. The regional brain uptake values were expressed as percent standard uptake value (% SUV), which normalizes for injected radioactivity and body weight. In addition, the area under the curve (AUC) was calculated. The selected regions of interest (ROI) were: cortex, hippocampus, striatum and cerebellum.

[2] = tested on: recombinant tau and amyloid β1-42 (Aβ1-42) aggregates; details: affinity for tau aggregates versus Aβ1-42 aggregates; cited from earlier work
[3] = target: T1, Q46 protein aggregates (Homo sapiens, UniProt P42858); assay: Q46 radioligand binding assay (RBA); details: 10 nM ligand [3H3]MK-3328
T1 construct: fused on or other part: GST at the N-terminus, cut off with thrombin before the test to start aggregation; The wells held aggregated Q46 without GST
T1 sequence (P42858 with tags, fused parts or gaps with the stated changes, form open): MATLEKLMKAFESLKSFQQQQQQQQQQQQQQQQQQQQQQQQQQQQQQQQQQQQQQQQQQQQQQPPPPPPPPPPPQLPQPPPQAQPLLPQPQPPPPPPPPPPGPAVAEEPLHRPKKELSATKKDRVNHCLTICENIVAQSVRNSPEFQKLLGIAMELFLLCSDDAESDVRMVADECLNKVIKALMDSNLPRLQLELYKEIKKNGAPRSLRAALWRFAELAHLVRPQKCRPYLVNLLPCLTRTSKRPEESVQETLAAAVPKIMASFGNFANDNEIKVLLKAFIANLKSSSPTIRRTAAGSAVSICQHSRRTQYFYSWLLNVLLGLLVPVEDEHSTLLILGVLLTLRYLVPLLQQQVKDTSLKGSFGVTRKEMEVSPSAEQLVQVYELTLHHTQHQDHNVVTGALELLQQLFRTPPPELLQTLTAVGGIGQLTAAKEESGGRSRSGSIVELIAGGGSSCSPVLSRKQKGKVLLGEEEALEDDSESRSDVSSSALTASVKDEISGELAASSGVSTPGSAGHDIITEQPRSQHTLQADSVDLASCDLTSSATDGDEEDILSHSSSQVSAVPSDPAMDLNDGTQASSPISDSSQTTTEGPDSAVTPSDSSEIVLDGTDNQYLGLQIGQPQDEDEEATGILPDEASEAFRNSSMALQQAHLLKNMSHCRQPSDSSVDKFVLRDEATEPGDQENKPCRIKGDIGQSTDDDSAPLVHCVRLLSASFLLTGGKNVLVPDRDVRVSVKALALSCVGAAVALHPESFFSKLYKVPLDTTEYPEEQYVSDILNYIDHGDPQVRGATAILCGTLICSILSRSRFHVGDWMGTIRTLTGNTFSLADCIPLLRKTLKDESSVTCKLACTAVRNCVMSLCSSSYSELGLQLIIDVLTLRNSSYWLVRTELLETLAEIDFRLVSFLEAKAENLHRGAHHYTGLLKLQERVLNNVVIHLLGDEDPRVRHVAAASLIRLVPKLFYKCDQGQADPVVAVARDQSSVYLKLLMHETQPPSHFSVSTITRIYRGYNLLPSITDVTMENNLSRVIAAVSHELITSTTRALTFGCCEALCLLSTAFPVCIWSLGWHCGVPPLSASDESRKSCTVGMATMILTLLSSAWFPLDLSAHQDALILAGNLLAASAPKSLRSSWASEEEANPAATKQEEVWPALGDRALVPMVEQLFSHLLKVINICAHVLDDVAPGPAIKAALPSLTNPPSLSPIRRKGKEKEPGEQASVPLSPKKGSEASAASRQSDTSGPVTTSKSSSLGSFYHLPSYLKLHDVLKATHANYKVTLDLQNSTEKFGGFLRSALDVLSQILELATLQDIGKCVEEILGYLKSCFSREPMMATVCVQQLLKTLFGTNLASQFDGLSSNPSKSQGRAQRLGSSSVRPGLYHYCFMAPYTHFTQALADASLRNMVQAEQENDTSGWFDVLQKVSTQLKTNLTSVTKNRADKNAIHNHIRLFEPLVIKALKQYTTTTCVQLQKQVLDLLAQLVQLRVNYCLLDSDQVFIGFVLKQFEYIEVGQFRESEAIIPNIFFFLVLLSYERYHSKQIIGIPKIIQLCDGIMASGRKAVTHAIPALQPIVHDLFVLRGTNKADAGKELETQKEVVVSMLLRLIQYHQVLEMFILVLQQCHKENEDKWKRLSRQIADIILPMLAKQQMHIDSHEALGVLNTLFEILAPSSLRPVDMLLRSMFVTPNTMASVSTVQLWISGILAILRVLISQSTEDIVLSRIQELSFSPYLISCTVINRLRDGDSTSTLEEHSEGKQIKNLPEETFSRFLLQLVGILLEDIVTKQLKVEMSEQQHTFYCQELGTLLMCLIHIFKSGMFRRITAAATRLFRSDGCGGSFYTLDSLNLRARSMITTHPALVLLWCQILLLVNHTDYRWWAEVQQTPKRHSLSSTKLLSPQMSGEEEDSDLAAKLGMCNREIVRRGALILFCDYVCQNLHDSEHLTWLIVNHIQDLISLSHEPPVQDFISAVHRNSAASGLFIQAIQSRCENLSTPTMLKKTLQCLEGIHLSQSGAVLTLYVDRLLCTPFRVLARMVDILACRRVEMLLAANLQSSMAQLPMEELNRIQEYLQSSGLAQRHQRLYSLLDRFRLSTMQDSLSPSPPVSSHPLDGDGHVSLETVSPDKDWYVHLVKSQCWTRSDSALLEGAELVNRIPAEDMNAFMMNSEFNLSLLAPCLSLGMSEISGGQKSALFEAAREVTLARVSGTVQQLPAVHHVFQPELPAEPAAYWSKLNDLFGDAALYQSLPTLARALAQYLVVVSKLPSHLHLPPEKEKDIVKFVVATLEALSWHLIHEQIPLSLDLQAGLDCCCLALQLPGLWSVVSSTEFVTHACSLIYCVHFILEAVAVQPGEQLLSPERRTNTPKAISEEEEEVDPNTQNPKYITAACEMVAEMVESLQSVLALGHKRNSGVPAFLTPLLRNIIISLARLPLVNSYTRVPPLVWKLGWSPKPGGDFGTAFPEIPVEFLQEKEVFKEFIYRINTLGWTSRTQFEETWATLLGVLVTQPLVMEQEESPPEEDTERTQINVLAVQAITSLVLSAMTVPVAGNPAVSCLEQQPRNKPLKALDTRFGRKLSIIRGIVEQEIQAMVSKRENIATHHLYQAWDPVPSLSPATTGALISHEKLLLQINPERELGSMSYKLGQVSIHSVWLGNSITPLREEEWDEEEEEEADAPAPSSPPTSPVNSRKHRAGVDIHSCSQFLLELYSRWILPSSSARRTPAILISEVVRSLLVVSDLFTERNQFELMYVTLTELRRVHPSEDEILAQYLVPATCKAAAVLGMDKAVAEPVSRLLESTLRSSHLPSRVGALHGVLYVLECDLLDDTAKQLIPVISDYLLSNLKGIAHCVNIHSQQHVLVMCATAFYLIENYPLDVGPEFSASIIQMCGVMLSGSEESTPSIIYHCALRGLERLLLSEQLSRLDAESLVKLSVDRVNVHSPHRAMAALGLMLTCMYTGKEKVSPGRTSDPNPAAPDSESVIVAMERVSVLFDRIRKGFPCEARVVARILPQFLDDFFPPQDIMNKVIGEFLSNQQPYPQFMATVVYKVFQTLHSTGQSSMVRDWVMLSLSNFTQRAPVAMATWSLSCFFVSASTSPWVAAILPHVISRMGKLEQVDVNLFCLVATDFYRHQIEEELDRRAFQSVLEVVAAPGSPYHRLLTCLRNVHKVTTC
Method in brief: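 Aggregates from thrombin-cleaved GST-Q46 (16 h, 37° C) at 5 μM monomer-equivalent were pre-incubated 20 min at room temperature with compound (1 μM to 30 pM) in 150 mM NaCl, 50 mM Tris pH 8.0, then 60 min at 37° C with 10 nM [^3H3]MK-3328. Bound radioactivity was filtered and counted; IC50 came from a four-parameter global fit normalized to vehicle and 3 μM unlabelled MK-3328.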

For [11CH3]Oc1ccc(COc2ccc3oc(-c4cccnc4)nc3c2)nc1 [^11C-labeled Compound 3 of Method 14, 5-[(5-[^11C-]-Methoxypyridin-2-yl)methoxy]-2-(pyridin-3-yl)-1,3-benzoxazole], the “binding of the radioligand relative to wild type” value ([1]; all four brain regions, mice homozygous for the zQ175 allele) was “Increased binding”, the “Average % SUV” value ([1]; cerebellum, WT mice (n = 7)) was 74.2 ± 3.0 % SUV and the “Average % SUV” value ([1]; cerebellum, het zQ175 mice (n = 7)) was 78.4 ± 5.9 % SUV. For the same compound, the “Average % SUV” value ([1]; cerebellum, hom zQ175 mice (n = 6)) was 88.2 ± 5.0 % SUV, the “Average % SUV” value ([1]; cortex, WT mice (n = 7)) was 69.1 ± 3.1 % SUV and the “Average % SUV” value ([1]; cortex, het zQ175 mice (n = 7)) was 75.1 ± 4.3 % SUV. The “Average % SUV” value ([1]; cortex, hom zQ175 mice (n = 6)) was 93.9 ± 8.0 % SUV, the “Average % SUV” value ([1]; hippocampus, WT mice (n = 7)) was 72.0 ± 3.6 % SUV and the “Average % SUV” value ([1]; hippocampus, het zQ175 mice (n = 7)) was 80.3 ± 5.5 % SUV. For the same compound, the “Average % SUV” value ([1]; hippocampus, hom zQ175 mice (n = 6)) was 104.6 ± 7.9 % SUV, the “Average % SUV” value ([1]; striatum, WT mice (n = 7)) was 68.8 ± 2.7 % SUV and the “Average % SUV” value ([1]; striatum, het zQ175 mice (n = 7)) was 79.7 ± 5.8 % SUV. The “Average % SUV” value ([1]; striatum, hom zQ175 mice (n = 6)) was 104.4 ± 9.1 % SUV.

In the case of CN(C)c1ccc(/C=C/c2nc3ccc(I)cc3[nH]2)cc1 [SBIM-3, 4-[(E)-2-(6-iodo-1H-benzimidazol-2-yl)ethenyl]-N,N-dimethylaniline], the “ratio of Kd values” [2] is given as 2.73.

In the case of O=C(Nc1ccc2oc(-c3cccnc3)nc2c1)c1ccc2ccccc2n1 [N-[2-(pyridin-3-yl)-1,3-benzoxazol-5-yl]quinoline-2-carboxamide], the pIC50 [3] was > 7.00.

OC(Cc1ccc2oc(-c3cccnc3)nc2c1)c1ccccn1 (stereo not drawn) [1-(pyridin-2-yl)-2-[2-(pyridin-3-yl)-1,3-benzoxazol-5-yl]ethan-1-ol] showed a pIC50 [3] of 6.30 to 7.00.

For COc1ncc(-c2ccc3oc(-c4cccnc4)nc3c2)cn1 [5-(2-methoxypyrimidin-5-yl)-2-(pyridin-3-yl)-1,3-benzoxazole], the pIC50 [3] was 6.30 to 7.00.

For COc1ccc(OCc2ccc3oc(-c4cccnc4)nc3c2)nc1 [5-{[(5-methoxypyridin-2-yl)oxy]methyl}-2-(pyridin-3-yl)-1,3-benzoxazole], the pIC50 [3] was > 7.00.

In the case of Cn1nc(COc2cnc3oc(-c4cccnc4)nc3c2)ccc1=O [2-methyl-6-({[2-(pyridin-3-yl)-[1,3]oxazolo[5,4-b]pyridin-6-yl]oxy}methyl)-2,3-dihydropyridazin-3-one], the pIC50 [3] was 6.30 to 7.00.

For COc1ccc(COc2ccc3oc(-c4ccc(-c5ncccn5)cc4)nc3c2)nc1 [5-[(5-methoxypyridin-2-yl)methoxy]-2-[4-(pyrimidin-2-yl)phenyl]-1,3-benzoxazole], the pIC50 [3] was > 7.00.

With COc1ccc(COc2ccc3oc(-c4cccc(CN(C)C)c4)nc3c2)nc1 [[(3-{5-[(5-methoxypyridin-2-yl)methoxy]-1,3-benzoxazol-2-yl}phenyl)methyl]dimethylamine] the pIC50 [3] was > 7.00.

With N#Cc1ccc(C(=O)Nc2ccc3oc(-c4cccnc4)nc3c2)cc1 [4-cyano-N-[2-(pyridin-3-yl)-1,3-benzoxazol-5-yl]benzamide] the pIC50 [3] was > 7.00.

In the case of Cn1cc(COc2ccc3oc(-c4cnccc4C#N)cc3c2)cn1 [3-{5-[(1-methyl-1H-pyrazol-4-yl)methoxy]-1-benzofuran-2-yl}pyridine-4-carbonitrile], the pIC50 [3] was > 7.00.

For COc1ccc2c(c1)CN(c1cnc3oc(-c4cccnc4)nc3c1)C2=O [5-methoxy-2-[2-(pyridin-3-yl)-[1,3]oxazolo[5,4-b]pyridin-6-yl]-2,3-dihydro-1H-isoindol-1-one], the pIC50 [3] was > 7.00.

Compound COc1ccc(COc2ccc3oc(C4CCN(C)CC4)nc3c2)nc1 [5-[(5-methoxypyridin-2-yl)methoxy]-2-(1-methylpiperidin-4-yl)-1,3-benzoxazole] has a pIC50 [3] of 6.30 to 7.00.

COc1ccc2c(c1)CCN(c1ccc3oc(-c4cccnc4)nc3c1)C2=O [6-methoxy-2-[2-(pyridin-3-yl)-1,3-benzoxazol-5-yl]-1,2,3,4-tetrahydroisoquinolin-1-one] showed a pIC50 [3] of 6.30 to 7.00.

For COc1ccc(COc2ccc3oc(-c4cccnc4)nc3c2)cc1 [5-[(4-methoxyphenyl)methoxy]-2-(pyridin-3-yl)-1,3-benzoxazole], the pIC50 [3] was > 7.00.
